Assay results from patent US12616704B2, “Cannabichromene formulation for pain management” (Zyus Life Sciences Inc., priority 2020, dated 2026).

Columns and labels:
Type in all cases: in vivo, C57BL/6J mice
[1] = Welfare observations in OIPN study; details: Duloxetine 25 mg/kg i.p., OIPN mice
Description: Seven mice were disqualified from further study due to showing too mild cool allodynia.

[2] = test system: Oxaliplatin-induced cool allodynia; assay: Acetone Cooling Test (ACT) in oxaliplatin-induced polyneuropathy (OIPN) model; details: CBC 20 mg/kg p.o., Duloxetine 25 mg/kg i.p.
Experimental: Model Induction—Mouse Oxaliplatin-induced polyneuropathy (OIPN) model was induced over a three-week period. The day of first Oxaliplatin (OXP) injection is referred to as day 0 (DO). OXP was administered as six separate intraperitoneal injections at 4.5-mg/kg (10 ml/kg, i.p.) to Groups 2, 3, and 4 on DO, D4, D8, D12, D16, and D20. The cumulative OXP dose was thus 27 mg/kg. The in-life procedures, such as observations, tests, and/or measurements were performed by Charles River Discovery Services with blinded methods. The mice were distributed into 4 groups (n=8 for Vehicle Control; n=10 OXP Control; n=20 CBC; n=15 Duloxetine).
Treatments—Following exposure to OXP for 20 days, Groups 3 and 4 were treated with CBC (20 mg/kg, p.o.) and Duloxetine (25 mg/kg, i.p.), respectively, for 10 consecutive days. In a similar regimen Groups 1 and 2 (Vehicle Control and OXP-Vehicle Control, respectively) received a corresponding volume of 5% glucose solution at an administration volume of 10 mL/kg.
Acetone Cooling Test (ACT) —To produce a measurable cooling sensation, 10-15 μL of acetone was applied onto the medial area of the plantar hind paw with a 0.5 ml insulin syringe. Responses of a mouse to acetone were monitored for 20 s, and a score given based on a four-point scale (0-3 points), according to the response intensity, continuation, and briskness. The higher the score, the greater the cool allodynia sensed by the mouse.
Within one test timepoint, a total of 3 trials were performed per paw with a minimum gap of 5 min between testing. The three individual scores were added up to obtain a single score over a cumulative period of 60 s. Thus, for one test, the minimum score of one paw is 0 (no cool allodynia), while the maximum possible score is 9 (intensive cool allodynia). The total scores for the left and right paws were averaged to accomplish a single result value per mouse at each timepoint.
The Acetone Cooling Test was performed prior to OXP administration (Baseline), following the last OXP injection (D21), one day after the first CBC, Duloxetine, or Vehicle treatment (D22), and after a 10-day daily dosing of CBC, Duloxetine, or Vehicle treatment (D31). Taken together, the ACT was used to assess chemotherapy-induce cool allodynia as stated in the schedule:
On D22: At 60 min after the first Vehicle/CBC dose and 120 min after Dulx dose.
On D31: At 60 min after the last Vehicle/CBC and 120 min after Dulx dose.

[3] = Body weight in OIPN study; details: OIPN mice; CBC 20 mg/kg p.o., Duloxetine 25 mg/kg i.p.
Experimental: Body Weight—Animal body weights were measured before assigning the treatment groups and then on each day of the study. The last body weight measurement was performed upon endpoint sampling. Terminal body weights were not collected from animals found dead or euthanized moribund.

With `CNCC[C@H](Oc1cccc2ccccc12)c1cccs1` [Duloxetine, reference compound] the “share of the group with adverse effects (enlarged staring eyes and clearly decreased activity)” value [1] was 30%, the “ACT score compared with OXP-Vehicle control” value ([2]; D22, acute single dose) was “statistically significant and comparable reduction in cool allodynia” and the “ACT score compared with OXP-Vehicle control” value ([2]; D31, chronic repeated dosing) was “maintained a significant reduction in cool allodynia”. For the same compound, the “ACT score, D31 vs. D21” value ([2]; within group, 10-day repeated dosing) was “significant reduction of cool allodynia”, the “ACT score, reversion of cool allodynia D22 vs. D21 pre-treatment: p” value ([2]; within group, single dose) was less than 0.01 and the “body weight development from D22 onwards” value [3] was “slower increase in body weight”.
